This is an account of results in patent US20230236206A1, “PREDICTING A SEPSIS CONDITION” (PHARM-ANALYT LABOR GMBH, priority 2020, published 2023).

A short description of this series: Hydrophilicity of BM1. The format is physicochemical.

Regarding `C[C@@H](O)[C@H](NC(=O)Nc1ncnc2c1ncn2[C@@H]1O[C@H](CO)C(O)C1O)C(=O)O` (stereo partly drawn) [BM1, N6-Carbamoylthreonyl-D-adenosine], the Hydrophilicity result is given as “very hydrophilic”.
